Measured values as given in the supplement of paper PMC13380429.

Columns and labels:
HepG2 [1] = assay: drug sensitivity score (DSS) for viability; higher = more toxic; extreme values may be limits of the assay; conditions: 72 h
Caco-2 [2] = assay: as above; conditions: 72 h
Calu-3 [3] = assay: as above; conditions: 72 h
Vero E6 [4] = assay: as above; conditions: 72 h
U2OS [5] = assay: as above; conditions: 72 h
[6] = tested on: A549-ACE2 infected with SARS-CoV-2; assay: morphology score (similarity to uninfected cells); higher = more like uninfected cells; conditions: 24 h
A549-ACE2 [7] = assay: drug-induced phospholipidosis relative to tamoxifen; higher = more phospholipidosis
[8] = tested on: A549-ACE2 infected with SARS-CoV-2; assay: SARS-CoV-2 infection rate relative to DMSO; higher = more infection; conditions: 24 h
HepG2 [9] = assay: relative viability EC50 (midpoint between 100% and the lowest measured viability); higher = less toxic; conditions: 72 h
Caco-2 [10] = assay: as above; conditions: 72 h
Vero E6 [11] = assay: as above; conditions: 72 h
U2OS [12] = assay: as above; conditions: 72 h
A549-ACE2 [13] = assay: phospholipidosis EC50; higher = less potent phospholipidosis inducer
[14] = tested on: A549-ACE2 infected with SARS-CoV-2; assay: cell count relative to DMSO; higher = less toxic; conditions: 24 h
HepG2 [15] = assay: cell viability relative to DMSO; higher = less toxic; conditions: 72 h
Caco-2 [16] = assay: as above; conditions: 72 h
Calu-3 [17] = assay: as above; conditions: 72 h
Vero E6 [18] = assay: as above; conditions: 72 h
U2OS [19] = assay: as above; conditions: 72 h
Calu-3 [20] = assay: relative viability EC50 (midpoint between 100% and the lowest measured viability); higher = less toxic; conditions: 72 h

COc1ccc2cc(-c3nc(-c4ccc([S+](C)[O-])cc4)[nH]c3-c3ccncc3)ccc2c1 (stereo not drawn) [tie2-kinase-inhibitor]
Conditions	drug sensitivity score	relative viability EC50 [µM]
Caco-2 [2]	0.1	–
Caco-2 [10]	–	> 10
Calu-3 [3]	2.5	–
HepG2 [1]	1.2	–
HepG2 [9]	–	> 10
U2OS [5]	0.6	–
U2OS [12]	–	> 10
Vero E6 [4]	0	–
Vero E6 [11]	–	> 10

Conditions	SARS-CoV-2 infection rate [%]	cell count [%]	cell viability [%]	morphology score	phospholipidosis EC50 [µM]
A549-ACE2 [13], 24 h	–	–	–	–	7.52
A549-ACE2 [13], 48 h	–	–	–	–	6.68
Caco-2 [16], 1 nM	–	–	104	–	–
Caco-2 [16], 10 nM	–	–	102	–	–
Caco-2 [16], 100 nM	–	–	108	–	–
Caco-2 [16], 1000 nM	–	–	89.6	–	–
Caco-2 [16], 10000 nM	–	–	97.4	–	–
Calu-3 [17], 1 nM	–	–	104	–	–
Calu-3 [17], 10 nM	–	–	103	–	–
Calu-3 [17], 100 nM	–	–	101	–	–
Calu-3 [17], 1000 nM	–	–	98.1	–	–
Calu-3 [17], 10000 nM	–	–	56.7	–	–
HepG2 [15], 1 nM	–	–	109	–	–
HepG2 [15], 10 nM	–	–	103	–	–
HepG2 [15], 100 nM	–	–	98.6	–	–
HepG2 [15], 1000 nM	–	–	91.7	–	–
HepG2 [15], 10000 nM	–	–	79.9	–	–
U2OS [19], 1 nM	–	–	104	–	–
U2OS [19], 10 nM	–	–	97.3	–	–
U2OS [19], 100 nM	–	–	106	–	–
U2OS [19], 1000 nM	–	–	96.5	–	–
U2OS [19], 10000 nM	–	–	84.6	–	–
Vero E6 [18], 1 nM	–	–	102	–	–
Vero E6 [18], 10 nM	–	–	102	–	–
Vero E6 [18], 100 nM	–	–	97.1	–	–
Vero E6 [18], 1000 nM	–	–	104	–	–
Vero E6 [18], 10000 nM	–	–	98.9	–	–
[6], 0.3 µM	–	–	–	0.15	–
[6], 3 µM	–	–	–	0.39	–
[6], 10 µM	–	–	–	0.69	–
[6], 30 µM	–	–	–	0.58	–
[8], 0.3 µM	98	–	–	–	–
[8], 3 µM	87	–	–	–	–
[8], 10 µM	43	–	–	–	–
[8], 30 µM	59	–	–	–	–
[14], 0.3 µM	–	101	–	–	–
[14], 3 µM	–	114	–	–	–
[14], 10 µM	–	122	–	–	–
[14], 30 µM	–	112	–	–	–

drug-induced phospholipidosis [%], A549-ACE2 [7]
Conditions	0.3 µM	0.833333 µM	3.33333 µM	6.66667 µM	10 µM	30 µM
24 h	3.67	4.27	13.4	35.8	68	86.8
48 h	4.58	3.03	14.7	33.7	65	56.9
72 h	3.91	-0.14	11.2	35.7	69.8	–

CN(C)CCCN1c2ccccc2Sc2ccc(C(F)(F)F)cc21 [triflupromazine]
Conditions	morphology score, 0.3 µM	morphology score, 3 µM	morphology score, 10 µM	morphology score, 30 µM	phospholipidosis EC50, 24 h [µM]	phospholipidosis EC50, 48 h [µM]	phospholipidosis EC50, 72 h [µM]
A549-ACE2 [13]	–	–	–	–	4.26	11.7	3.51
[6]	0.09	0.65	0.84	0.41	–	–	–

COc1cc(NC(C)CCCN)c2ncccc2c1 (stereo not drawn) [primaquine]
Conditions	drug sensitivity score	relative viability EC50 [µM]
Caco-2 [2]	4	–
Caco-2 [10]	–	2.25
Calu-3 [3]	0.8	–
Calu-3 [20]	–	> 10
HepG2 [1]	0.3	–
HepG2 [9]	–	> 10
U2OS [5]	0	–
U2OS [12]	–	> 10
Vero E6 [4]	0	–
Vero E6 [11]	–	> 10

Conditions	SARS-CoV-2 infection rate, [8] [%]	cell count, [14] [%]	cell viability, Caco-2 [16] [%]	cell viability, Calu-3 [17] [%]	cell viability, HepG2 [15] [%]	cell viability, U2OS [19] [%]	cell viability, Vero E6 [18] [%]	morphology score, [6]
1 nM	–	–	103	104	122	103	108	–
10 nM	–	–	108	90.7	107	102	105	–
100 nM	–	–	91.8	106	108	102	99.7	–
0.3 µM	97	102	–	–	–	–	–	-0.01
1000 nM	–	–	93.9	100	110	101	102	–
10000 nM	–	–	45.2	76.9	80.3	88.9	89.9	–

A549-ACE2 [7], 0.3 µM
Conditions	drug-induced phospholipidosis [%]
24 h	2.39
48 h	2.15
72 h	2.76
